From article PMC8696028, “Tricarboxylate Citrate Transporter of an Oleaginous Fungus Mucor circinelloides WJ11: From Function to Structure and Role in Lipid Production” (Frontiers in Nutrition, 2021)

Molecular target: T1, Tct (tricarboxylate citrate transporter; tricarboxylate carrier) (Mucor circinelloides, UniProt S2K4S3)
T1 construct: gene HMPREF1544_06035; full-length tct (321 residues), E. coli codon-optimised, pET30a(+) NdeI/HindIII with C-terminal His tag, E. coli BL21(DE3); urea-denatured, Ni-purified, renatured, reconstituted in liposomes
T1 sequence (S2K4S3 entry or part of it): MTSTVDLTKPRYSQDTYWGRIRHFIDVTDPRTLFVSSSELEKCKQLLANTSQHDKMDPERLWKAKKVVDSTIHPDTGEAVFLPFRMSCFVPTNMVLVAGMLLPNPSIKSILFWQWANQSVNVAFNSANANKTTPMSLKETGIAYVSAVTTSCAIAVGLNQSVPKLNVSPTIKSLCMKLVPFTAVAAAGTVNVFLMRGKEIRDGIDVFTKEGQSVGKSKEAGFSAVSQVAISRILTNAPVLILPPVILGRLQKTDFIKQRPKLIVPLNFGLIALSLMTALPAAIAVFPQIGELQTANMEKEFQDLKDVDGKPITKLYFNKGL
Assay: […]citrate/citrate exchange in Tct-reconstituted proteoliposomes, inhibitor-stop method
Format: biochemical
Conditions: 10 mM internal citrate, 0.01 mM external [14C]citrate, 2 min

Cc1ncc(COP(=O)(O)O)c(C=O)c1O [pyridoxal 5'-phosphate]
inhibition at 20 mM: Pyridoxal-5'-phosphate (PLP) and pHMB strongly inhibit Tct transport activity
